This note sets out measurements from patent publication US8546381B2, “Bridged heterocyclic compounds and methods of use” (Medivation Technologies, Inc., priority 2008, dated 2013).

Assay [1] concerns the target T1, human recombinant histamine H1 receptor (Homo sapiens, UniProt P35367).
T1 construct: expressed in transfected cells; host or cells: CHO cells
As to the kind of experiment: Histamine H1 radioligand binding ([3H]Pyrilamine). The note with it: for inhibition at 1 µM / Histamine Binding (1 μM) H1, Percentage Inhibition: compound at 1 μM, inhibition of specific [3H]Pyrilamine binding; for inhibition at 1 µM: read-out: Histamine Binding (1 μM) H1, Percentage Inhibition. As to the method: To evaluate in radioligand binding assays the activity of compounds of the invention, human recombinant histamine H1 receptor expressed in Chinese hamster ovary (CHO) cells (De Backer, M. D. et al., Biochem. Biophys. Res. Comm. 197(3):1601, 1993) in a modified Tris-HCl buffer (50 mM Tris-HCl, pH 7.4, 2 mM MgCl2, 100 mM NaCl, 250 mM Sucrose) was used. Compounds of the invention were incubated with 1.2 nM [^3H]Pyrilamine for 180 minutes at 25° C. Non-specific binding was estimated in the presence of 1 μM pyrilamine. Receptor proteins were filtered and washed, the filters were then counted to determine [^3H]Pyrilamine specifically bound. Compounds were screened at 1 μM or lower, using 1% DMSO as vehicle. Biochemical assay results are presented as the percent inhibition of specific binding in Table 2.

Assay [2] deals with T2, human recombinant serotonin (5-Hydroxytryptamine) 5-HT2C receptor (Homo sapiens, UniProt P28335).
T2 construct: expressed in transfected cells; host or cells: CHO-K1 cells
T2 sequence (P28335 33-458): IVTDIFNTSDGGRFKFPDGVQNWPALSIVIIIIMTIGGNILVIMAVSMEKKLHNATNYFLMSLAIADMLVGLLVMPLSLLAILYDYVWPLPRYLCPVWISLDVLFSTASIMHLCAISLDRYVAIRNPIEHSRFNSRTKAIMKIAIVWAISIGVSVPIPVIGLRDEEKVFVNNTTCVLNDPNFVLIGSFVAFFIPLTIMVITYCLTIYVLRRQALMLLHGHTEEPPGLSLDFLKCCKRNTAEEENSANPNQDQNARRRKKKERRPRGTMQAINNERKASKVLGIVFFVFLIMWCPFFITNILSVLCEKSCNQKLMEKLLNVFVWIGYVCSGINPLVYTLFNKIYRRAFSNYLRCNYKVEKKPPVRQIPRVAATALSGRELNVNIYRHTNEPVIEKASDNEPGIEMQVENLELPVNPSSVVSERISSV
As to the kind of experiment: Serotonin 5-HT2C radioligand binding ([3H]Mesulergine). The following applies: for inhibition at 1 µM: read-out: Serotonin 5-HT2C, inhibition of ligand binding (1 μM). As to the method: To evaluate in radioligand binding assays the activity of compounds of the invention, human recombinant serotonin (5-Hydroxytryptamine) 5-HT2C receptor expressed in Chinese hamster ovary (CHO-K1) cells (Wolf, W. A. and Schutz, J. S., J. Neurochem. 69:1449, 1997) in a modified Tris-HCl buffer (50 mM Tris-HCl, pH 7.4, 0.1% Ascorbic Acid, 10 μM Pargyline) was used. Compounds of the invention were incubated with 1 nM [^3H]Mesulergine for 60 minutes at 25° C. Non-specific binding was estimated in the presence of 1 μM Mianserin. Receptor proteins were filtered and washed, the filters were then counted to determine [^3H]Mesulergine specifically bound. Compounds were screened at 1 μM or lower, using 1% DMSO as vehicle. Biochemical assay results are presented as the percent inhibition of specific binding in Table 4.

Assay [3] concerns the target T3, human recombinant histamine H2 receptor (Homo sapiens, UniProt P25021).
T3 construct: expressed in transfected cells; host or cells: CHO-K1 cells
As to the kind of experiment: Histamine H2 radioligand binding ([125I]Aminopotentidine). The note with it: compound at 1 μM, inhibition of specific [125I]Aminopotentidine binding; for inhibition at 1 µM: read-out: Histamine Binding (1 μM) H2, Percentage Inhibition. As to the method:
To evaluate in radioligand binding assays the activity of compounds of the invention, human recombinant histamine H2 receptor expressed in Chinese hamster ovary (CHO) K1 cells (Ruat, M., Proc. Natl. Acad. Sci. USA. 87(5):1658, 1990) in a 50 mM Phosphate buffer, pH 7.4 was used. Compounds of the invention were incubated with 0.1 nM [^125I]Aminopotentidine for 120 minutes at 25° C. Non-specific binding was estimated in the presence of 3 μM Tiotidine. Receptor proteins were filtered and washed, the filters were then counted to determine [^125I]Aminopotentidine specifically bound. Compounds were screened at 1 μM or lower, using 1% DMSO as vehicle. Biochemical assay results are presented as the percent inhibition of specific binding in Table 2.

Assay [4] has as its target T4, human recombinant serotonin (5-Hydroxytryptamine) 5-HT2A receptor (Homo sapiens, UniProt P28223).
T4 construct: expressed in transfected cells; host or cells: CHO-K1 cells
Put plainly: Serotonin 5-HT2A radioligand binding ([3H]Ketanserin). The following applies: for inhibition at 1 µM: read-out: Serotonin 5-HT2A, inhibition of ligand binding (1 μM). As to the method:
To evaluate in radioligand binding assays the activity of compounds of the invention, human recombinant serotonin (5-Hydroxytryptamine) 5-HT2A receptor expressed in Chinese hamster ovary (CHO-K1) cells (Bonhaus, D. W. et al. Br. J. Pharmacol. 115:622, 1995; Saucier, C. and Albert, P. R., J. Neurochem. 68:1998, 1997) in a 50 mM Tris-HCl buffer, pH 7.4, was used. Compounds of the invention were incubated with 0.5 nM [^3H]Ketanserin for 60 minutes at 25° C. Non-specific binding was estimated in the presence of 1 μM Mianserin. Receptor proteins were filtered and washed, the filters were then counted to determine [^3H]Ketanserin specifically bound. Compounds were screened at 1 μM or lower, using 1% DMSO as vehicle. Biochemical assay results are presented as the percent inhibition of specific binding in Table 4.

SMILES strings stand for the structures. Values joined by “and” are separate entries in the source; they are usually repeats but may differ in a detail not shown here. Equal entries are not always repeated.

T3 sequence (P25021 whole entry): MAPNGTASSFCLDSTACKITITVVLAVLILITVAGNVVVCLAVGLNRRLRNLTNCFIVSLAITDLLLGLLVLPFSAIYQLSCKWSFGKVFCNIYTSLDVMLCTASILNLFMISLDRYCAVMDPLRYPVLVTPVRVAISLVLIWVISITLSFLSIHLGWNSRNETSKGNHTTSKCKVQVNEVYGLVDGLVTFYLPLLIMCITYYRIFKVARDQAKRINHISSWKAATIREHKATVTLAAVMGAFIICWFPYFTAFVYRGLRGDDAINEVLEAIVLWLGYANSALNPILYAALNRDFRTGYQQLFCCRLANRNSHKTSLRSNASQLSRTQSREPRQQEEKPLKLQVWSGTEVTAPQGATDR
T4 sequence (P28223 whole entry): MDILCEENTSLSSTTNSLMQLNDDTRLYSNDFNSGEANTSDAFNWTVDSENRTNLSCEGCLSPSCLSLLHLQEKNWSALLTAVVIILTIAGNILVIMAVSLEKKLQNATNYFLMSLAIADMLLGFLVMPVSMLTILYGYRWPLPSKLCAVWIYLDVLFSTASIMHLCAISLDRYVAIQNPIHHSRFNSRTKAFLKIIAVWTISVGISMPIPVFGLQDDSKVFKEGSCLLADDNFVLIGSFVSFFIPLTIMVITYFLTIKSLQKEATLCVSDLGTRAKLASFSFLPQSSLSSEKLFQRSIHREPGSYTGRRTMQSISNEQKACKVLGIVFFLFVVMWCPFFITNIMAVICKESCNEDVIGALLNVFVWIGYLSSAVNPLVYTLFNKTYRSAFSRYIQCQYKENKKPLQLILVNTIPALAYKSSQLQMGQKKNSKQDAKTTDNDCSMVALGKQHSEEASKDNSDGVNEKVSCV
T1 sequence (P35367 whole entry): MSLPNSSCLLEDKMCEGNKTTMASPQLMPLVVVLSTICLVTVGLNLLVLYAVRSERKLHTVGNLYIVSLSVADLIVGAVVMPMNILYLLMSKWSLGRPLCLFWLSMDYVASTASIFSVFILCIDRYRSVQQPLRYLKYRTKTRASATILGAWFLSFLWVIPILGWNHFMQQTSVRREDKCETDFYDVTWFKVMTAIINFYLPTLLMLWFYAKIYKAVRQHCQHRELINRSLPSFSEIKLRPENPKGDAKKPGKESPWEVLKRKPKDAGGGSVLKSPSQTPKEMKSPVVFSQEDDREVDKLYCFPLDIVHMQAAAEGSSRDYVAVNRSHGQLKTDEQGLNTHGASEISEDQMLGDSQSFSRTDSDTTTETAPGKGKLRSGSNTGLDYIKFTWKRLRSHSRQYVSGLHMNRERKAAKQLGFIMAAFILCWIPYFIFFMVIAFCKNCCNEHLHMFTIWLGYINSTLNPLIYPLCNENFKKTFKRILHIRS

With `Cc1ccc2c(c1)c1c(n2CCc2ccccc2)CC2CCC1N2C` (stereo not drawn) [Compound 2], the inhibition (usually the drop in the measured response relative to a control, in per cent) at 0.01 µM in assay [1] (compound at 10.0 nM, read-out: Histamine Binding H1, Percentage Inhibition (10.0 nM)) stood at 42%. Further, the inhibition at 0.1 µM in assay [1] (compound at 0.1 μM, read-out: Histamine Binding H1, Percentage Inhibition (0.1 μM)) came out at 85%. Moreover, the inhibition at 1 µM in assay [1] is 99%; in assay [2], 79%; in assay [3], 43%; in assay [4] it was 96%.

As to `CN1C2CCC1c1c(n(CCC(=O)N3CCNC(=O)C3)c3ccc(Cl)cc13)C2` (stereo not drawn) [Compound 3], the inhibition at 1 µM in assay [1] worked out at 12%; in assay [2], 2%; in assay [3], 2%; in assay [4], 3%.

Turning to `CN1C2CCC1c1c(n(CCC(=O)N3CCCC3)c3ccc(Cl)cc13)C2` (stereo not drawn) [Compound 5], the inhibition at 1 µM is 32% in assay [1], -9% in assay [2] and -9% in assay [3].

Consider `CC(=O)N1CCN(C(=O)CCn2c3c(c4cc(Cl)ccc42)C2CCC(C3)N2C)CC1` (stereo not drawn) [Compound 8], for which the inhibition at 1 µM in assay [1] is 16%; in assay [2] it was -6%; in assay [3], 9%; in assay [4] it was 1%.

As for `CN1C2CCC1c1c(n(CCC(=O)N3CCNCC3)c3ccc(Cl)cc13)C2` (stereo not drawn) [Compound 9], the inhibition at 1 µM in assay [1] was 6%; in assay [2], 5%; in assay [3], 3%; in assay [4], 15%.

Consider `CN1C2CCC1c1c(n(CCC(=O)N3CC[S+]([O-])CC3)c3ccc(Cl)cc13)C2` (stereo not drawn) [Compound 10], for which the inhibition at 1 µM in assay [1] is 7%; in assay [2], 4%; in assay [3] it was 1%; in assay [4], -5%.

As for `CN1C2CCC1c1c(n(CCC(=O)N3CCS(=O)(=O)CC3)c3ccc(Cl)cc13)C2` (stereo not drawn) [Compound 11], the inhibition at 1 µM in assay [1] was 2%; in assay [2], 13%; in assay [3] it was 9%; in assay [4], -8%.

For `CN1C2CCC1c1c(n(CCC(=O)N3CCSCC3)c3ccc(Cl)cc13)C2` (stereo not drawn) [Compound 12], the inhibition at 1 µM in assay [1] is 29%; in assay [2], 26%; in assay [3], -2%; in assay [4], 10%.

As to `CN1C2CCC1c1c(n(CCC(=O)N3CCOCC3)c3ccc(Cl)cc13)C2` (stereo not drawn) [Compound 13], the inhibition at 1 µM is 28% in assay [1], 8% in assay [2] and -2% in assay [3].

For the molecule `Cc1ccc2c(c1)c1c(n2CCc2ccc(C)nc2)CC2CCC1N2C` (stereo not drawn) [Compound 32], the inhibition at 1 µM is 94% in assay [1], -3% in assay [2], 13% in assay [3] and 15% in assay [4].

As for `CN1C2CCC1c1c(n(CCc3ccc(Cl)cc3)c3ccc(F)cc13)C2` (stereo not drawn) [Compound 33], the inhibition at 1 µM turned out to be 86% in assay [1], 64% in assay [2] and 18% in assay [3].

On to `CN1C2CCC1c1c(n(CCc3ccc(C(F)(F)F)nc3)c3ccc(Cl)cc13)C2` (stereo not drawn) [Compound 34], for which, in assay [1], the “Histamine Binding (1 μM) H1, Percentage Inhibition” value is on record as 55.0%. Further, the inhibition at 1 µM in assay [1] was found to be 52%; in assay [2] it was 27%; in assay [3] it was 12%. The “Serotonin 5-HT2C, inhibition of ligand binding (1 μM)” value in assay [2] (1 µM) worked out at 28.0%. For the same molecule, the “Histamine Binding (1 μM) H2, Percentage Inhibition” value in assay [3] (1 µM) is given as 24.0%. Further, the “Serotonin 5-HT2A, inhibition of ligand binding (1 μM)” value in assay [4] was 36.0/ % and 65.0%.

`CN1C2CCC1c1c(n(CCc3ccc(F)cc3)c3ccc(F)cc13)C2` (stereo not drawn) [Compound 35]: the values for the inhibition at 1 µM in assay [1], in assay [2] and in assay [3] were 93%, 86% and 27%, respectively.

For `CN1C2CCC1c1c(n(CCCc3ccc(C(F)(F)F)nc3)c3ccc(Cl)cc13)C2` (stereo not drawn) [Compound 37], the inhibition at 1 µM in assay [1] came out at 78%; in assay [2] it was 26%; in assay [3] it was 7%; in assay [4], 23%.

On to `Cc1ccc(CCCn2c3c(c4cc(Cl)ccc42)C2CCC(C3)N2C)cn1` (stereo not drawn) [Compound 38], for which the inhibition at 1 µM in assay [1] was determined as 96%; in assay [2], 23%; in assay [3], 9%; in assay [4], 13%.

As to `CN1C2CCC1c1c(n(CCCc3ccc(Cl)cc3)c3ccc(Cl)cc13)C2` (stereo not drawn) [Compound 39], the inhibition at 1 µM in assay [1] was 91%; in assay [2], 94%; in assay [3], 86%; in assay [4], 87%.

`Cc1ccc(C(O)Cn2c3c(c4cc(Cl)ccc42)C2CCC(C3)N2C)cn1` (stereo not drawn) [Compound 52]: the inhibition at 1 µM came to 91% in assay [1], 11% in assay [2], 2% in assay [3] and 21% in assay [4].

For the molecule `Cc1ccc2c(c1)c1c(n2CC(C)(O)c2ccc(Cl)cc2)CC2CCC1N2C` (stereo not drawn) [Compound 54], the inhibition at 1 µM in assay [1] was found to be 63%; in assay [2] it was 93%; in assay [3], 50%; in assay [4] it was 100%.

Regarding `CN1C2CCC1c1c(n(CC(=O)N3CCOCC3)c3ccc(Cl)cc13)C2` (stereo not drawn) [Compound 59, 2-(2-chloro-11-methyl-5,6,7,8,9,10-Hexahydro-7,10-iminocyclohept[b]indol-5-yl)-1-morpholinoethanone], the figures for the inhibition at 1 µM in assay [1], in assay [2] and in assay [3] were 7%, 8% and 15%, respectively.

Regarding `CN1C2CCC1c1c(n(CC(=O)N3CCCC3)c3ccc(Cl)cc13)C2` (stereo not drawn) [Compound 60], the inhibition at 1 µM in assay [1] was 21%; in assay [2], 15%; in assay [3] it was 3%.

With `Cc1ccc(CCn2c3c(c4cc(Cl)ccc42)C2CCC(C3)N2C)cc1` (stereo not drawn) [Compound 61], the inhibition at 1 µM was 98% in assay [1], 86% in assay [2] and 52% in assay [3].

For the molecule `Cc1ccc2c(c1)c1c(n2CCc2ccc(F)cc2)CC2CCC1N2C` (stereo not drawn) [Compound 62], the inhibition at 1 µM in assay [1] stood at 98%; in assay [2] it was 87%; in assay [3], 52%.

In the case of `Cc1ccc2c(c1)c1c(n2CCc2ccc(C(F)(F)F)nc2)CC2CCC1N2C` (stereo not drawn) [Compound 71], the “Histamine Binding (1 μM) H1, Percentage Inhibition” value in assay [1] was 46.0%. Further, the values for the inhibition at 1 µM in assay [1], in assay [2] and in assay [4] were 33%, -0.259% and 22%, respectively. The “Serotonin 5-HT2A, inhibition of ligand binding (1 μM)” value in assay [4] amounted to 34.0%.
